Measured values from patent US10981911B2, “Imidazopyrrolopyridine as inhibitors of the JAK family of kinases” (Janssen Pharmaceutica NV, priority 2016, dated 2021).

What was measured:
Tyk2-JH1JH2 = Tyk2-JH1JH2 (Homo sapiens (Human), UniProt P29597, C1142A/C936A); assay: Enzymatic inhibition assay (RapidFire HTMS), Tyk2; assay type: biochemical; conditions: 50 μM ATP, 200 μM substrate
Outline: (§1)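 Quenched with 0.5% TFA plus internal-standard peptide; phosphorylated product quantified by RapidFire C4 SPE–ESI-MS, 11-point 1:3 or 1:4 dilutions in duplicate.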

JAK1-JH1JH2 = JAK1-JH1JH2 (Homo sapiens (Human), UniProt P23458); assay: Enzymatic inhibition assay (RapidFire HTMS), JAK1; assay type: biochemical; conditions: 12.5 μM ATP, 200 μM substrate; read-out: JAK1-JH2JH1 IC50
Outline: as §1

JAK3-JH1JH2 = JAK3-JH1JH2 (Homo sapiens (Human), UniProt P52333); assay: Enzymatic inhibition assay (RapidFire HTMS), JAK3; assay type: biochemical; conditions: 150 μM ATP, 40 μM substrate
Outline: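 JAK3 JH1JH2 reaction incubated 45 min at 25 °C, then quenched with 0.5% TFA containing 0.15 μM internal standard peptide. Phosphopeptide product measured by RapidFire C4 SPE–ESI MS (positive mode); inhibition from product decrease versus uninhibited enzyme, 11-point 1:3 or 1:4 dilutions in duplicate.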

[1] = In vivo intracolonic (i.c.) dosing: plasma and colon tissue concentrations (Protocol 3); design: species or system female C57BL/6 mice; conditions: mice; for concentration at 4 h: colon, read-out: Colon Concentration After i.c. Dosing, Mean
Description: Plasma and colon concentration results were obtained by following Protocol 1 using venipuncture of dorsal metatarsal vein bleed for Compounds (B), (C), and Examples 10 and 74. Plasma and colon concentration results were obtained by following Protocol 2 using retro-orbital bleed for Compounds (A), and Examples 1, and 3-5 and Protocol 2 using venipuncture of the dorsal metatarsal vein for Examples 2, 22, 34, 38, 55, and 85. Plasma and colon concentration results were obtained by following Protocol 3 for Examples 1, 3 and 4. These protocols are described below under the heading In vivo Studies.
Intracolonic (IC) dose group: Following anesthesia with isoflurane by inhalation, three non-fasted female C57BL/6 mice were administered the compound intracolonically through a small incision in the abdominal wall using a syringe and needle at a dose of 5 mg/kg as a solution in 20% HPβCD at a dose volume of 1 mL/kg. Blood samples were collected at 0.5, 2, and 4 h post dose via retro-orbital bleed. Blood samples were collected into tubes containing anticoagulant (Heparin-Na) and placed on wet ice. The plasma fraction was separated by centrifugation and frozen at −20° C. for up to 4 h and −80° C. after 4 h unless analyzed shortly after sample collection. Colon samples were collected at 4 h post dose. From 2 cm below the cecum, a 4-cm sample of the colon was dissected, cut open on the longitudinal axis, and the solid contents removed by flushing with 2 mL of saline. The colon was further washed by putting it in 5 mL of saline and shaken for 5 seconds. The colon sample was then patted dry, weighed, and homogenized as 1 part tissue (g) to 4 parts HPLC grade water (mL). Concentrations of the compound in plasma and colon homogenate were determined using a qualified liquid chromatography-triple quadrupole mass spectrometry (LC-MS/MS) method. This protocol was used to evaluate IC dosing of the following test compounds: Examples 1, 3, and 4.

[2] = female, C57BL/6, mouse, other: intracolonic (i.c.), 5 mg/kg i.c.
[3] = female, C57BL/6, mouse, plasma, other: intracolonic (i.c.), 5 mg/kg i.c., read-out: Plasma Concentration After i.c. Dosing, Mean

Sequence of Tyk2-JH1JH2 (P29597 580-1182 C936A/C1142A): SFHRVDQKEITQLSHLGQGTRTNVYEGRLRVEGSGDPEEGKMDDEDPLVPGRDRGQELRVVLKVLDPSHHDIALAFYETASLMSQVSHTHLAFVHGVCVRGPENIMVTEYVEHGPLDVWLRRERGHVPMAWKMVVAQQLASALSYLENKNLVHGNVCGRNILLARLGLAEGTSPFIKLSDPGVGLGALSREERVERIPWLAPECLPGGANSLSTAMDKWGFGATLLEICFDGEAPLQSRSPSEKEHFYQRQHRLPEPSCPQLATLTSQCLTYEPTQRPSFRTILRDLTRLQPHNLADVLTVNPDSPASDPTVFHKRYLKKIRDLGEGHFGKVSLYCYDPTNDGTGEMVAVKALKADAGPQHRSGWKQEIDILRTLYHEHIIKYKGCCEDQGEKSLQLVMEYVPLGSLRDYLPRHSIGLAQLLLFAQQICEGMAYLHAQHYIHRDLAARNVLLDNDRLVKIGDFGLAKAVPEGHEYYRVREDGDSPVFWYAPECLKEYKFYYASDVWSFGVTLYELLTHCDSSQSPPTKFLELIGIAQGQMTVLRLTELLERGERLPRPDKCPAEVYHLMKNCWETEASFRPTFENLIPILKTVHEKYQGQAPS
Sequence of JAK1-JH1JH2 (P23458 574-1154): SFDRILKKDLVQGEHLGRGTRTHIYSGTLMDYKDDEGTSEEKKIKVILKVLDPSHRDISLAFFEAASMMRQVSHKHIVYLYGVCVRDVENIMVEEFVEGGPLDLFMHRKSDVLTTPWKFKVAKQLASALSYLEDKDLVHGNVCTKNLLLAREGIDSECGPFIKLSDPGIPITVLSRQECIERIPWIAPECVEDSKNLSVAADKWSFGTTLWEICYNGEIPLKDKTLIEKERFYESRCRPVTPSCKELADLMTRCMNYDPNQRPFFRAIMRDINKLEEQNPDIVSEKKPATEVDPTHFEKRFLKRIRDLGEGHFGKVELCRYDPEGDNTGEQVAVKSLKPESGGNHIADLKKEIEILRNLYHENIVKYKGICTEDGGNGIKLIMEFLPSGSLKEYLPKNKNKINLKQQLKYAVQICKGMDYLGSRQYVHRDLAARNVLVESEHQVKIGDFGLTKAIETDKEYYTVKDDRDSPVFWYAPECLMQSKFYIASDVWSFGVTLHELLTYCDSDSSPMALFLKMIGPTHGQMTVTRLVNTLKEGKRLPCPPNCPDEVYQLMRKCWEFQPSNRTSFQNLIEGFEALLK
Sequence of JAK3-JH1JH2 (P52333 512-1124): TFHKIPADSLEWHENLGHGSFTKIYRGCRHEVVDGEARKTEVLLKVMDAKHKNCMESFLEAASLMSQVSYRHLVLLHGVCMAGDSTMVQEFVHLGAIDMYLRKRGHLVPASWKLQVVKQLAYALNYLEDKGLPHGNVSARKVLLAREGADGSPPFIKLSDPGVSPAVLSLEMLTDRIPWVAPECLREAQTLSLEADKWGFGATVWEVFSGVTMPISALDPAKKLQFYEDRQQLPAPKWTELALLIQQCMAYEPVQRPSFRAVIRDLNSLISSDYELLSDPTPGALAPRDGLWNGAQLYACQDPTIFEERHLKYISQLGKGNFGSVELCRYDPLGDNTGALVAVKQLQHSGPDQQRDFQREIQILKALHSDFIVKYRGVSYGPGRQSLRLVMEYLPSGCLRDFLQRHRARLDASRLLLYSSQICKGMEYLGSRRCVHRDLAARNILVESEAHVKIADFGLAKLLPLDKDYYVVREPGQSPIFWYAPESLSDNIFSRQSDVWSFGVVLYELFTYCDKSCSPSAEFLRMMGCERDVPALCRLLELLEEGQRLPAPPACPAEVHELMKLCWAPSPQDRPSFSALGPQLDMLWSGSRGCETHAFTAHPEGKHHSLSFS

Row | SMILES | IC50 (Tyk2-JH1JH2) [nM] | IC50 (JAK1-JH1JH2) [nM] | IC50 (JAK3-JH1JH2) [nM] | concentration at 4 h [1, 2] [ng/g] | concentration at 0.5 h [1, 3] [ng/mL] | systemic exposures after i.c. dosing [1] | concentration at 2 h ([1]; female, C57BL/6, mouse, plasma, other: intracolonic (i.c.), 5 mg/kg i.c., Time = 2 h, read-out: Plasma Concentration After i.c. Dosing, Mean) [ng/mL]
1 | N#CCC12CCC(NC(=O)Cc3nc4cnc5[nH]ccc5c4n3[C@H]3CC[C@H](CC#N)CC3)(CC1)C2 [Ex. 55, N-(4-(Cyanomethyl)bicyclo[2.2.1]heptan-1-yl)-2-(1-((1r,4r)-4-(cyanomethyl)cyclohexyl)-1,6-dihydroimidazo[4,5-d]pyrrolo[2,3-b]pyridin-2-yl)acetamide] | 4.7 | 0.2 | 59.6 |  |  |  | 
2 | N#CC[C@H]1CC[C@H](n2c(CC(=O)NCC3CC3)nc3cnc4[nH]ccc4c32)CC1 [Ex. 3, 2-(1-((1r,4r)-4-(Cyanomethyl)cyclohexyl)-1,6-dihydroimidazo[4,5-d]pyrrolo[2,3-b]pyridin-2-yl)-N-(cyclopropylmethyl)acetamide] |  |  |  | 228 | 1.5 | low systemic exposures | 
3 | CC(C)(C#N)CNC(=O)Cc1nc2cnc3[nH]ccc3c2n1[C@H]1CC[C@H](CC#N)CC1 [Ex. 22, N-(2-Cyano-2-methylpropyl)-2-(1-((1r,4r)-4-(cyanomethyl)cyclohexyl)-1,6-dihydroimidazo[4,5-d]pyrrolo[2,3-b]pyridin-2-yl)acetamide] | 4.1 | 0.1 | 93.6 |  |  |  | 
4 | N#CC[C@H]1CC[C@H](n2c(CC(=O)NCC3(O)CCC3)nc3cnc4[nH]ccc4c32)CC1 [Ex. 34, 2-(1-((1r,4r)-4-(Cyanomethyl)cyclohexyl)-1,6-dihydroimidazo[4,5-d]pyrrolo[2,3-b]pyridin-2-yl)-N-((1-hydroxycyclobutyl)methyl)acetamide] | 3.1 | 0.2 | 42.5 |  |  |  | 
5 | CC(C)(O)CNC(=O)Cc1nc2cnc3[nH]ccc3c2n1[C@H]1CC[C@H](CC#N)CC1 [Ex. 1, 2-(1-((1r,4r)-4-(Cyanomethyl)cyclohexyl)-1,6-dihydroimidazo[4,5-d]pyrrolo[2,3-b]pyridin-2-yl)-N-(2-hydroxy-2-methylpropyl)acetamide] | 6.9 | 0.3 | 87.8 | 681 | 2.5 | low systemic exposures | 
6 | N#CC[C@H]1CC[C@H](n2c(CC(=O)NCC3(O)CC3)nc3cnc4[nH]ccc4c32)CC1 [Ex. 85, 2-(1-((1r,4r)-4-(Cyanomethyl)cyclohexyl)-1,6-dihydroimidazo[4,5-d]pyrrolo[2,3-b]pyridin-2-yl)-N-((1-hydroxycyclopropyl)methyl)acetamide] | 5.4 | 0.4 | 68.2 |  |  |  | 
7 | N#CCCNC(=O)Cc1nc2cnc3[nH]ccc3c2n1[C@H]1CC[C@H](CC#N)CC1 [Ex. 4, N-(2-Cyanoethyl)-2-(1-((1r,4r)-4-(cyanomethyl)cyclohexyl)-1,6-dihydroimidazo[4,5-d]pyrrolo[2,3-b]pyridin-2-yl)acetamide] |  |  |  | 26.1 | 3.8 | low systemic exposures | 2.5
